{"source": "patent US11191293B2", "about": "“Nutritional composition and infant formula for promoting myelination of the brain” (NESTEC S.A., priority 2015, dated 2021)", "key": {"[1]": {"test_system": "neural progenitor cell (NPCs)", "experiment": "Neurosphere counts in 96-well plates", "format": "cell-based, mouse", "conditions": "cells grown for 2 days", "experimental": "Generation of neural progenitor cell (NPCs) libraries:\ndissociation of E14 mouse neocortex\nE14 pup brains were harvested and placed in ice cold DPBS(1X)+10% Pen/Strep, then they were dissected using a dissecting microscope. From each pup, one brain hemisphere was placed in 2 ml of Neurobasal media/10% P/S/10X Hepes and another brain hemisphere was placed in another tube.\nThe tissue from each tube was aseptically and manually dissociate into single cells, neurobasal complete medium was added and centrifuged at 130G for 5 min. The tissue was then re-suspended in neurobasal complete media with GF and placed in a corning suspension culture dish 100 mm×20 mm (#430591). Cells were passage twice using a 1:3 ratio, after what they were centrifuged (130 g 5 min), resuspended in freezing media (10% DMSO and neurobasal complete media, no GF) and frozen in liquid nitrogen (LN2).\nCorning Costar 3474, 96 well plate, Ultra low attachment\n3-4 mLs of cells were taken out of the tilted plate and add to a 15 ml conical. Some of the remaining media was used to rinse down the plate. All remaining media was drawn up and put into a 15 ml conical tube, and Spun at 130 G for 5 min. All media was removed. The cells were gently resuspended in 5 mls of warm PBS, spun again. PBS was then removed and the cells were then gently resuspended in 500 μl of Accutase(Corning™ Accutase™ Cell Detachment Solution, #25058Cl). The cells were then Pipetted gently with a 1000 μl tip to break up pellet, and then they were placed in a shaking water bath for 5-10 minutes, after which time they were swirled by hand frequently.\nControl and compound media was made with #2 media and contain 29 uM Choline, low (5 uM) and medium (70 uM) choline media was made with #3 media.\nClumps were no bigger than ˜3-5 cells. 5-10 mls of warm media (GF) was added to dilute enzyme. 2 mls of media was added. […]\nin AB staining solution for five min. Imaging was carried out using a GE Cytell imager or LSM 710, Zeiss confocal microscope and the diameters of neurospheres with ImageJ software (National Institutes of Health) was analysed."}, "[2]": {"test_system": "neural progenitor cell (NPCs)", "experiment": "Monolayer culture NPC proliferation assay", "format": "cell-based, mouse", "conditions": "3 days culture", "experimental": "24 well glass bottom plates (Mat Tek P24G-1.0-13-F Case, glass bottom 24 well plates) were coated with poly-L-ornithin (Sigma P4957) and Fibronection (Sigma F1141) before use in the assay below.\nCells were plated (10,000 cells per well) in Complete media with GF for 24 hours (500 ul per well). Once cells had been attached they were switched to choline deficient media, other compound media, or appropriate media.\nAfter 24 h, it was ensured that cells had attached to the plate then the medium was carefully removed. 500 μL of compound media plus GF.was added. The cells were cultured for 3 days in appropriate media.\nControl and compound media was made with #2 media and contains 29 uM Choline, Low (5 uM) and medium (70 uM) choline media was made with #3 media.\nEDU incorporation was measured using Click-iT® EdU Alexa Fluor® 555 Imaging Kit (Life technologies, #c10338).\nAt the end of day 3 EdU was added to each well at 10 μM for 30 minutes prior to fixation. For fixation and subsequent immunohistochemical analysis, the medium was removed, the cells were rinsed once with 1X PBS for 5 min, and fixed with 4% PFA in 1X PBS for 15 min at 4° C., then the cells were washed twice with 1X PBS for 5 min, left in 1X PBS, wrapped in foil and leave overnight at 4° C., or staining was proceeded with.\nPBS was removed and enough AB staining solution (1% Goat\nserum, 1xPBS, and 0.1% triton X) added to cover the bottom, the blockwas kept at room temp for 1 hour. The cells were stained for EDU. The cells were Incubated for 30 min at room temp, in the dark. The cells were washed with 1X PBS and stained with Dapi 1:5000 ul for 15 min. The cells were washed once with 1X PBS, then left in PBS at 4° C., or Imaged immediately using a GE Cytell imager (cell viability\napplication), or LSM 710, Zeiss confocal microscope (with ImageJ software (National Institutes of Health) analysis)."}, "[3]": {"test_system": "brain myelination (myelin water fraction)", "experiment": "Cross-sectional correlation of infant formula nutrient content with brain myelination (mcDESPOT MRI myelin water fraction)", "format": "in vivo, human", "conditions": "formula-fed children up to 5 years of age; brain regions named per nutrient", "experimental": "MRI (Magnetic Resonance Imaging): MRI brain scans of infants and children between 0 and 5 years were acquired using a white matter imaging technique. This technique provides a quantitative measure, the Myelin Water Fraction (MWF), which is a surrogate marker of myelin content in the brain. When mapped as a function of time across early childhood, myelination trajectories can be generated.\nInfant formula composition: six infant formulas fed to infants participating in a study were analyzed for their composition/level of myelin-relevant nutrients.\nInfants included in this study were drawn from a larger longitudinal study of normal brain and behavioral development: the Brown University Assessment of Myelination and Behavior Across Maturation (BAMBAM). To focus on neurotypical development, children with known potential risk factors for learning, neurologic, or psychiatric disorders were specifically excluded during recruitment and enrollment. Thus, children with in utero alcohol or illicit substance exposure, premature (<37 weeks gestation) or multiple birth, fetal ultrasound abnormalities, complicated pregnancy (e.g., preeclampsia), APGAR scores <8, NICU admission, neurological disorder (e.g., head injury, epilepsy), psychiatric or developmental disorders in the infant, parents or siblings (including maternal depression requiring medication) were excluded. Ongoing screenings, such as the MCAT for autism, or CBCL for behavioral problems, were further used to remove enrolled children with clinically concerning behaviors or overt medical conditions (such as autism spectrum disorders).\nA combination of retrospective and prospective data were acquired from parents via detailed medical histories and parental interview on the type of infant formula used, percentage of breastfeeding to formula feeding, and length of exclusive breastfeeding. This information was updated at each study visit, which occurred approximately every 6 months for children under 2 years, and yearly for older children. Using this information, children were categorized into one of 2 groups: #1. Exclusively formula-fed; and #2. Exclusively breastfed for at least 90 days (3 months). Children who were fed a combination of breastmilk and formula within 3 months were excluded from our analysis. Infants within the exclusively formula-fed group were further sub-divided based on parental reports of the main infant formula used throughout the first 3 months. Main formula was defined as that given 90% of the time or more (in the case were parents used an alternate brand during vacation, for example).\nUsing these criteria, 94 exclusively formula-fed infants and young children were selected into group #1. These included 13 children who received formula #2; 28 who received formula #5; 8 who received formula #3; 39 who received formula #4; 5 who received formula #1 and 1 who received formula #6. A sample of 52 exclusively breast-fed infants were also selected and matched to the over formula-fed group with regards to mean age, gestation duration, birth weight, male:female ratio, ethnicity ratio, maternal education, family size, and number of languages spoken in the home (in addition to English).\nEach infant was scanned using the mcDESPOT (multicomponent Driven Equilibrium Single Pulse Observation of T1 and T2) white matter imaging technique Deoni et al. (Magn. Reson. Med. 2008, 60:1372-1387), which provides a quantitative measure of the myelin water fraction (MWF)—a measure of myelin content—at each point throughout the brain. All infants were scanned during natural (i.e. non-sedated) sleep using acoustically-muffled mcDESPOT imaging protocols. Total imaging times ranged from 19 minutes for the youngest toddlers to 24 minutes for the older 4 year-old children."}}}
{"substance": "Sphingomyelin", "values": [{"measurement": "number of neurospheres, Average (Mean)", "setting": "[1]; Sphingomyelin High (Dose 3, 1 μm)", "result": 219}, {"measurement": "number of neurospheres, Average (Mean)", "setting": "[1]; Sphingomyelin Low (Dose 1, 10 nM)", "result": 94}, {"measurement": "number of neurospheres, Average (Mean)", "setting": "[1]; Sphingomyelin Med (Dose 2, 100 nM)", "result": 121}, {"measurement": "neuronal proliferation, DAPI", "setting": "[2]; Sphingomyelin high (Dose 3, 1 μm)", "result": 305}, {"measurement": "neuronal proliferation, DAPI", "setting": "[2]; Sphingomyelin low (Dose 1, 10 nM)", "result": 280}, {"measurement": "neuronal proliferation, DAPI", "setting": "[2]; Sphingomyelin med (Dose 2, 100 nM)", "result": 314}, {"measurement": "association of nutrient content of infant formula with myelination (myelin water fraction) over time in the brain", "setting": "[3]", "result": "an association with myelination (myelin water fraction) was observed"}]}
